Consider eight compounds from patent US20100261710A1, “HDAC Inhibitors” (ARQULE, INC., priority 2007, published 2010).

One data set relates to HCT-116 cells. Put plainly: MTS cell viability assay, HCT-116. It counts as cell-based. The settings on record: Homo sapiens, HCT-116, 72 h, read-out: HCT-116, IG50, MTS (uM). The protocol:
The MTS cell viability assay was used to determine the potency of proliferation inhibitor with. MTS measures mitochondrial dehydrogenase activity and serves as surrogate readout for the number of viable cells.
For MTS assay, cells were plated in 96-well plates at 2000 cells per well and incubated in the presence of compounds for 72 hr. MTS was added to each well as instructed by manufacture (Promega) and plates were incubated for 4 h at 37° C. The absorbance of each well was measured at 490 nm using a microplate reader.
In general terms: Tetrazolium assays rely on reduction of a dye to a coloured formazan, in cell work by metabolically active cells.

Another data set concerns the target T1, HDAC1 (Homo sapiens, UniProt Q13547).
T1 construct: cell extract containing HDAC (HeLa in these experiments); endogenous in cells; host or cells: HeLa cell extract
In words: HDAC-1 immunocapture fluorescent biochemical assay (HeLa lysate). The settings on record: HDAC1 immunocaptured from HeLa extract. The protocol:
The HDAC-1 assay represents a novel immunocapture assay procedure. […] The HDAC1 is captured on a protein A coated plate using HDAC1 specific antibody, and is then allowed to react with the substrate.
This assay in performed in four general steps. In the first step (FIG. 1A), cell extract containing HDAC (HeLa in these experiments) is incubated with (cell signaling) rabbit polyclonal HDAC1 antibody (rabbit IgG antibody is used for background control) to allow binding of the enzyme to the antibody. In the second step, the complexed mixture is added to the protein A covered plate which captures the antibody. In the third step, after washing away unbound proteins, substrate and inhibitor are added and deacetylation is allowed to occur. […] The plate is then read on either Victor or Perkin Elmer Envision system using Umbilliferone filter set.
• A. HeLa extract complexed with HDAC1 antibody working solution (in DPBS):
Compound working solution (in HDAC buffer):
Compounds diluted in assay buffer at 2× Screening concentration. • D. Activator solution:
Trypsin (10 mg/mL) diluted 1:1600 in assay buffer containing 4 μM TSA.
Complexing of extract with antibody was carried out at room temperature for 60 min with rocking. Binding of complexes onto protein A plate was carried out at room temperature for 60 min in 50 μL. Reaction was carried out in […], in the protein A plate for 60 minutes at 37° C. 40 μL of the reaction was moved into white ½ area plate for activation and reading.
• 1. Set PIERCE Protein A plate to block with 150 μof 5% BSA in TB ST for 60 min at room temperature. • 2. […] Dilute complexes further ([…]) by addition of 3.5 mL of PBS (final total volume of 5 mL). • 4. Wash blocked protein A plate prior to complex addition with TBST. • 5. Add 50 μl of diluted complexes to Protein A plate and incubate for 60 min at room temperature. • 6. Wash plate with TB ST. • 7. Add 25 μl of diluted compounds (in HDAC buffer) to each well and incubate for 10 min at room temperature. • 8. […] Move 40 μl of reaction to a white plate and add 20 μl of activator/developer solution, mix thoroughly. • 10. Read plate.

Data set [1] concerns HDACs (nuclear HeLa extract). In words: pan-HDAC fluorescent biochemical assay with nuclear HeLa extract. The following applies: HDAC peptide substrate, 60 min at 37° C. The procedure:
Substrate was synthesized in house. Stocks were prepared in DMSO (10 mM).
Compound working solution: Compounds dissolved in assay buffer at 4× Screening concentration. Activator solution: Trypsin (10 mg/mL) diluted 1:1600 in Assay Buffer containing 4 μM TSA.
Total reaction Volume: 40 μL
Reaction was allowed to run for 60 minutes at 37° C.
2. Combine in a white ½ area well plate: 10 μl of 4× compound (or buffer), 15 μl of substrate and 15 μl of HeLa extract. Mix well
3. Incubate at 37° C. for 60 min.
4. Prepare Activator solution. Dilute Trypsin 1:1600 in Assay Buffer+4μM TSA. 20 μl is needed per assay point.
5. Add 20 μl of prepared activator solution and mix thoroughly.
The hydroxamic-acid based compounds of the present invention were tested in the biochemical assay for their pan-HDAC inhibitory activity.

T1 sequence (Q13547 whole entry): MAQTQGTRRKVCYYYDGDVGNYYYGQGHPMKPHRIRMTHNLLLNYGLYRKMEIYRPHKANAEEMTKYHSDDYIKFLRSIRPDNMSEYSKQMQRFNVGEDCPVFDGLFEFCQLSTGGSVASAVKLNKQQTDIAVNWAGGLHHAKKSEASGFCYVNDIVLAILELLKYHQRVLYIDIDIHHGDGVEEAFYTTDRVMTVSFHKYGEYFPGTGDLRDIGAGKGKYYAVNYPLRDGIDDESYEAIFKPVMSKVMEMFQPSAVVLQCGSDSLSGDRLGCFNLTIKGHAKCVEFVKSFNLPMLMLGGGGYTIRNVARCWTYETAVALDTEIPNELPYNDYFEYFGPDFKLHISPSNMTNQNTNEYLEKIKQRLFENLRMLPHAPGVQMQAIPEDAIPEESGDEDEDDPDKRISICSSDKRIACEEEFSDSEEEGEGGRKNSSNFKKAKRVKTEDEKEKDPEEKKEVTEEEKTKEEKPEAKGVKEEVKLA

On to `O=C(CCCCCCCNC(=O)c1cn2c3c(cccc13)CCC2)NO`, for which the melting point (in general, the temperature of the solid-liquid transition) was in the range of 174 to 176 °C.
The compound `O=C(CCCCNC(=O)c1cn2c3c(cccc13)CCC2)NO` [compound 5, N-[5-(hydroxyamino)-5-oxopentyl]-5,6-dihydro-4H-pyrrolo[3,2,1-ij]quinoline-1-carboxamide] came in with a melting point of 179 to 181 °C. Also, the IC50 with HCT-116 cells worked out at 5.81 µM. At HDAC1, the IC50 amounted to 0.583 µM. Further, in data set [1], the IC50 was determined as 0.809 µM.
In turn, `O=C(CCCCCCN(Cc1ccccc1)C(=O)c1cn2c3c(cccc13)CCC2)NO` [compound 14, N-benzyl-N-[7-(hydroxyamino)-7-oxoheptyl]-5,6-dihydro-4H-pyrrolo[3,2,1-ij]quinoline-1-carboxamide] came in with a melting point of 71 to 73 °C. Further, the IC50 in the data set with HCT-116 cells came out at 3.8 µM. This compound also came in with an IC50 in data set [1] of 0.78 µM.
Turning to `O=C(Cc1ccc(NC(=O)c2cn3c4c(cccc24)CCC3)cc1)NO` [compound 16, N-{4-[2-(hydroxyamino)-2-oxoethyl]phenyl}-5,6-dihydro-4H-pyrrolo[3,2,1-ij]quinoline-1-carboxamide], the melting point lay in the range of 199 to 202 °C. Besides, the IC50 in data set [1] was 2 µM.
`CC(=O)CCC1CCN(C(=O)c2cn3c4c(cccc24)CCC3)CC1` [compound 19, 4-[1-(5,6-dihydro-4H-pyrrolo[3,2,1-ij]quinolin-1-ylcarbonyl)piperidin-4-yl]butan-2-one] yielded an IC50 in data set [1] of 20 µM.
In the case of `Nc1ccccc1NC(=O)CCCCCCNC(=O)c1cn2c3c(cccc13)CCC2` [compound 20, N-{7-[(2-aminophenyl)amino]-7-oxoheptyl}-5,6-dihydro-4H-pyrrolo[3,2,1-ij]quinoline-1-carboxamide], the melting point is 144 to 145 °C. The compound further gave an IC50 in data set [1] of 4.39 µM.
The corresponding values for `Nc1cc(Cl)c(Cl)cc1NC(=O)CCCCCCNC(=O)c1cn2c3c(cccc13)CCC2` [compound 21, N-{7-[(2-amino-4,5-dichlorophenyl)amino]-7-oxoheptyl}-5,6-dihydro-4H-pyrrolo[3,2,1-ij]quinoline-1-carboxamide] are 124 to 125 °C and 15.5 µM.
The corresponding values for `COc1cccc(-c2cn3cc(C(=O)NCCCCCCC(=O)NO)sc3n2)c1` [compound 22, N-[7-(hydroxyamino)-7-oxoheptyl]-6-(3-methoxyphenyl)imidazo[2,1-b][1,3]thiazole-2-carboxamide] are 209 to 211 °C and 0.487 µM.
